Consider 11 molecules from US20230181524A1, “PHARMACEUTICAL COMBINATION AND USE THEREOF” (NATURAL MEDICINE INSTITUTE OF ZHEJIANG YANGSHENGTANG CO., …, priority 2020, published 2023).

For data set [1], the system named is 143B human osteosarcoma cells. Briefly: siRNA against β-catenin transfection with or without sodium ascorbate, cell viability by cell count. Particulars: 143B cells. In kind it is cell-based. The source says: SiRNA is designed against the nucleotide sequence of β-catenin, and the siRNA codes are 484, 1202, and 1387, respectively. The sequences of sense strand and anti-sense strand of 484 are shown in SEQ ID NO. 1-2, respectively, and the sequences of sense strand and anti-sense strand of 1202 are shown in SEQ ID NO. 3-4, respectively, and the sequences of sense strand and anti-sense strand of 1387 are shown in SEQ ID NO. 5-6, respectively, wherein there are 2 T-bases at the 3′ end of each strand. 143B human osteosarcoma cells were subcultured at 37° C., 5% CO2 in an incubator with a RPMI-1640 medium containing 10% fetal bovine serum. The particular steps were as follows:
(§1) 10 μL was taken for counting.
Then, the medium was discarded and replaced with 500 μL of serum-free medium.
(5) […] of siRNA was added into 50 μL of serum-free medium and mixed well.
(6) 1 μL of Lipofectamin 2000 transfection reagent was added into 50 μL of serum-free medium, mixed well, and stood at room temperature for 5 min.
(7) The siRNA diluted in Step (5) and the Lipofectamin 2000 reagent obtained in Step (6) were mixed, shaken well, and stood at room temperature for 20 min.
(8) 100 μL of the mixture obtained in Step (7) was added into the wells of the cell culture plate, cultured at 37° C. for 4h, and then the medium was replaced with normal medium. And an ascorbic acid solution with a concentration of 0.5 mM into the ascorbic acid group and the combination group.
(9) After 24h of dosing, the medium was discarded. […] The cells were digested for 5 min;

Data set [2] relates to HOS human osteosarcoma cells. The experiment in a line: Cell counts of drug combination administration (Trypan Blue), cell viability. The protocol: (§2) (1) Cells were plated in a 10 cm culture plate to grow a density of about 90%. The medium was removed, and the adherent cells were washed once with a PBS buffer. 1 mL of trypsin was added, and immediately discarded after mixing well. The cells were placed in the incubator and digested for about 5 min, and then about 10 ml of fresh medium was added. 10 μL was taken for counting.
(§3) (2) 10 μL of the well-mixed cells were taken and mixed into 10 μL of Trypan Blue solution, and counted.
(§4) (3) After counting, the cells were diluted to 1×10^5 cells/ml. The diluted cells were mixed well, and plated into a 24-well plate with 500 μL per well, i.e., about 50,000 cells per well.
(§5) (4) The cells plated in the 24-well plate were cultured for about 24h, and then drugs were added. […]
(§6) (5) After 24h of dosing, the medium was discarded. About 150 μL of trypsin was added and then discarded. The cells were digested for 5 min;
(§7) (6) After digestion, equivalent amounts of PBS were added into each well and mixed uniformly. Then, 10 μL/well of Trypan Blue solution was added and mixed uniformly. 10 μL of the well-mixed solution was taken and counted. In accordance with “Cell viability=Cell Count of Test Group/Cell Count of Control Group×100%”, the cell viability of various groups was calculated.
(§8) The coefficient of drug in interaction (CDI) was used to evaluate the nature of the interaction between the two drugs. The test groups were divided into the control group, the group of A drug, the group of B drug and the group of AB in combination, and used for detecting the cell viability in A, B and AB groups, respectively.

Data set [3] relates to 143B human osteosarcoma cells. The description is as above. The protocol:
as §2, §3, §4, §5, §6, §7, §8

The subject of the next data set is HEK293 cells. The experiment in a line: Cell viability compared with HEK293 cells (specificity). In kind it is cell-based. Particulars: in combination with ascorbic acid. The protocol:
HEK293 cells, HOS human osteosarcoma cells, and 143B human osteosarcoma cells were subcultured in an incubator at 37° C., 5% CO2 using a RPMI-1640 medium containing 10% fetal bovine serum (FBS).
as §1
(5) After 24h of dosing, the medium was discarded. […] The cells were digested for 5 min;

The subject of data set [4] is MC38 human colon cancer cells. Briefly: Cell viability, method of Example 1. The protocol: as §2, §3, §4
(§9) (4) The cells plated in the 24-well plate were cultured for about 24h, and then drugs were added. Various test groups comprise 5 groups as follows: the single-drug group of PKF118-310 (with a concentration of 0.1 μM), the group of ascorbic acid (with a concentration of 0.5 mM), the group of PKF118-310 (with a concentration of 0.1 μM) in combination with ascorbic acid (with a concentration of 0.5 mM); the control group that is a cell group to which only solvent DMSO is added; and the blank group that is a group to which no cell is added and only solvent (DMSO) is added.
as §6, §7
(§10) The inhibitory effect of PKF118-310 on the MC38 human colon cancer cells and the HCT116 human […] cancer cells was detected in accordance with the corresponding method of Example 1.

Data set [5] deals with MC38 human colon cancer cells. The experiment in a line: Cell viability of single-drug administration, concentration gradient (CCK-8). Format: cell-based. The following applies: concentrations ranging from 0 to 100 μM. The protocol: as §1
(§11) The diluted cells were plated into a 96-well plate with 100 μL per well, i.e., about 10,000 cells per well. […]
(§12) (4) After 24h of dosing, 10 μL of CCK-8 solution was added. The cells were incubated in the incubator for 1-2 hours, and then measured at 490 nm using a microplate reader for the absorbance (OD value) of each well. The results were recorded. The relative cell viability was calculated as follows:
(§13) The cell viability of the control group obtained according the equation is 100%.

Data set [6] has as its system HCT116 human colon cancer cells. The data set is described as above. In kind it is cell-based. The following applies: concentrations ranging from 0 to 100 μM. The protocol: as §1, §11, §12, §13
Data set [7] relates to SKOV3 human ovarian cancer cells. The experiment in a line: cells. The following applies: Homo sapiens, SK-OV-3, read-out: cell viability. As for the experimental part:
as §2, §3, §4, §9, §6, §7
(§14) The inhibitory effect of PKF118-310 on the SKOV3 human ovarian cancer cells and the 3AO human ovarian cancer cells was detected in accordance with the corresponding method of Example 1.

Data set [8] concerns 3AO human ovarian cancer cells. Briefly: cells. Particulars: Homo sapiens, 3AO, read-out: cell viability. As for the experimental part: as §2, §3, §4, §9, §6, §7, §14
For data set [9] the following is noted: alone; PKF118-310 0.7 mg/kg s.c. or ascorbate 1 g/kg i.v. every 3 days.
Experimental: The day of the first injection was taken as Day 1, and then the body weight and the tumor size of the nude mice were examined and recorded: the tumor volume (mm^3)=Length (L)×Width (W)^2/2. The tumor was subject to Luciferin fluorescence imaging. That is, a 1 mg/mL of aqueous potassium D-fluorescein solution was prepared, and each mouse was intraperitoneally injected with 100 μL. After 10 min of injection, the mice were subject to Luciferin fluorescence imaging with a small animal live imaging instrument.
Data set [10] deals with HCT116 human colon cancer cells. The experiment in a line: cells. The following applies: Homo sapiens, HCT-116, read-out: cell viability. The protocol: as §2, §3, §4, §9, §6, §7, §10
A further data set deals with DB lymphoma cells. The following applies: 2 mM ascorbic acid alone. The protocol: as §2, §3, §4, §9, §6, §7
For example, as for the DB lymphoma cells, the control group involves adding the solvent DMSO alone, the Vc group involves adding 2 mM of ascorbic acid, the low-dose PKF group involves adding 2 μM of PKF118-310, the low-dose PKF+Vc group involves adding 2 μM of PKF118-310 and 2 mM of ascorbic acid, the high-dose PKF group involves adding 5 μM of PKF118-310, and the high-dose PKF+the Vc group involves adding 5 μM of PKF118-310 and 2 mM of ascorbic acid.

Setting [11] is: administration of the siRNA alone.
The mark [12] stands for this setting: siRNA in combination with 0.5 mM sodium ascorbate.
Setting [13] is: 10 μM in combination with 0.5 mM ascorbic acid.
Where [14] appears, read: 20 μM in combination with 0.5 mM sodium ascorbate.
Setting [15] is: Homo sapiens, 143B, read-out: cell viability.
Where [16] appears, read: Homo sapiens, MC-38, read-out: cell viability.

“And” between values parts separate entries of the source, which are not always exact repeats. Equal values may be shown once. d = 2'-deoxy (DNA)

Take “siRNA 484: siRNA against β-catenin, sense and anti-sense strands SEQ ID NO. 1-2, 2 T-bases at the 3′ end of each strand (sense CCUUCACUCAAGAACAAGU; antisense ACUUGUUCUUGAGUGAAGG; RNA, 3' dTdT, backbone not given here)”: the cell viability (in general, a read-out of living cells in per cent, often relative to untreated cells) in data set [1] (setting [11]) came out at 90%. Also, in data set [1] (setting [12]), the CDI value turned out to be 0.46 and the cell viability was 26%.
Take `Cn1nc(-c2ccc(C(F)(F)F)cc2)nc2c(=O)n(C)c(=O)nc1-2` [Walrycin B]: the cell viability worked out at 30% in [2] (10 μM and 0.5 mM ascorbic acid); 42% in data set [2] (single drug 10 μM). Further, the CDI value in data set [2] (setting [13]) is reported as 0.73.
Regarding `OC1CCC(Oc2cccc3cnc(Nc4ccc5nc[nH]c5c4)nc23)CC1` (centres unmarked) [NCB-0846], the CDI value was 0.16 in [2] (setting [14]) and 0.13 in data set [3] (143B cells, 20 μM in combination with 0.5 mM sodium ascorbate). The “specificity of inhibition of tumor cell viability as compared with the HEK293 cells” value in the data set on HEK293 cells was “can specifically inhibit the cell viability of the 143B cells and the HOS cells”.
`CCC(C)c1nc2c(=O)n(C)c(=O)nc-2n(C(C)C)n1` (centres unmarked) [compound C-1]: the CDI value in [3] (143B cells, 5 μM in combination with 0.5 mM ascorbic acid) turned out to be 0.40; in data set [4] (MC38 cells, 5 μM in combination with 0.5 mM ascorbic acid) it was 0.68. Besides, the viability (usually a per cent measure of how many cells are alive, often set against a control) at 5 µM worked out at 50% in data set [3] (setting [15]) and 90% in data set [4] (setting [16]). Besides, the cell viability in data set [3] (human, 24 h, 5 μM) turned out to be 19%; in [4] (human, 24 h, 5 μM), 59%.
Consider `CC(C)c1nc2c(=O)n(C)c(=O)nc-2n(C)n1` [compound C-2], for which the CDI value in data set [3] (143B cells, 1 μM in combination with 0.5 mM ascorbic acid) was found to be 0.37; in [4] (MC38 cells, 1 μM in combination with 0.5 mM ascorbic acid), 0.07. In addition, the viability at 1 µM in [3] (setting [15]) and in data set [4] (setting [16]) was 83% throughout. For the same molecule, the cell viability was 28% in [3] (human, 24 h, 1 μM) and 6% in [4] (human, 24 h, 1 μM).
Regarding `C[C@H]1[C@H]2N(C(=O)CN(C)N2C(=O)NCc2ccccc2)[C@@H](Cc2ccc(OP(=O)(O)O)cc2)C(=O)N1Cc1cccc2cccnc12` [PRI-724], in data set [2] (setting [14]), the CDI value was found to be 0.41 and the cell viability is reported as 74%. The cell viability in data set [2] (single-drug 20 μM) was found to be 102%.
For “siRNA 1387: siRNA against β-catenin, sense and anti-sense strands SEQ ID NO. 5-6, 2 T-bases at the 3′ end of each strand (sense GUCAACGUCUUGUUCAGAA; antisense UUCUGAACAAGACGUUGAC; RNA, 3' dTdT, backbone not given here)”, in data set [1] (setting [11]), the cell viability is given as 80%. In addition, in data set [1] (setting [12]), the CDI value is recorded as 0.40 and the cell viability is 20%.
On to `O=C1[O][Pt]2([NH][C@@H]3CCCC[C@H]3[NH]2)[O]C1=O` [oxaliplatin], for which the “effect on the cell viability” value in data set [5] and in data set [6] was “does not have significant effect on the cell viability” in each case.
Regarding “siRNA 1202: siRNA against β-catenin, sense and anti-sense strands SEQ ID NO. 3-4, 2 T-bases at the 3′ end of each strand (sense GCUCAUCAUACUGGCUAGU; antisense ACUAGCCAGUAUGAUGAGC; RNA, 3' dTdT, backbone not given here)”, the cell viability in data set [1] (setting [11]) is on record as 91%. Also, in data set [1] (setting [12]), the CDI value was 0.30 and the cell viability turned out to be 17%.
On to `O=C1O[C@H]([C@@H](O)CO)C([O-])=C1O.[Na+]` [sodium ascorbate], for which the viability at 500 µM in [7] is 97%; in data set [8], 99%; in data set [1] (Homo sapiens, 0.5 mM sodium ascorbate alone (siRNA experiment)), 63%; in data set [4] (Homo sapiens, MC-38, read-out: cell viability, MC38 cells, 0.5 mM sodium ascorbate (ascorbic acid) alone) it was 83%; in [10], 98%. The cell viability in [2] (0.5 mM sodium ascorbate (ascorbic acid) alone) is 91% and 96% and 76%; in data set [2] (0.5 mM sodium ascorbate (ascorbic acid) alone, listed as ascorbic acid) it was 98% and 99%; in [3] (143B cells, 0.5 mM sodium ascorbate (ascorbic acid) alone), 54% and 80%; in data set [3] (143B cells, 0.5 mM sodium ascorbate (ascorbic acid) alone, listed as ascorbic acid) it was 96% and 92%; in [4] (MC38 cells, 0.5 mM sodium ascorbate (ascorbic acid) alone) it was 96% and 98%; in the data set on DB lymphoma cells, 91%. Further, in data set [9], the “effect on the body weight of mice” value is recorded as “no effect on the body weight of mice”.
In the case of `Cc1nc2c(=O)n(C)c(=O)nc-2n(C)n1` [3-Methyltoxoflavin], the cell viability is 54% in data set [2] (10 μM and 0.5 mM ascorbic acid); 63% in data set [2] (single drug 10 μM). For the same molecule, the CDI value in [2] (setting [13]) is given as 0.86.
